Laboratory results from patent publication US20220031736A1, “USE OF ANIONIC CLAY IN PREPARING LEAD-REMOVING MEDICINE” (priority 2019, published 2022).
Values joined by “and” are separate entries in the source; they are usually repeats but may differ in a detail not shown here. Identical values can stand only once.

Tested on: rats with chronic lead poisoning
Experiment: Chronic rat lead poisoning model, administration for treatment
Type: in vivo
Description: After the model was successfully established, the lead was stopped and the rates were fed with distilled water from the 31st day. […] The rats in the positive medicine group were given a dose of 10 mg/kg of sodium dimercaptosuccinate by intragastric administration, and all the intragastric subjects were given in equal volume twice a day for 30 days. On the 60th day, blood samples were collected. Brain, liver and femur samples were collected and stored in liquid nitrogen for later use. After wet digestion, the blood samples and tissues of each group were tested for content of lead by inductively coupled plasma mass spectrometry (ICP-MS), and the lead-removing rates were counted.
All the data were processed by SPSS 20.0 statistical software. Every group of measurement data was expressed by mean±[…] (mean±SD), and all of which were tested for homogeneity of variance by Levene method first. If the variances were homogeneous, single factor analysis of variance was used among multiple groups, and two-sample T test was used between two groups. If the hypothesis of parameter test was unreasonable, Kruskal-Wallis test was used among multiple groups, while Wilcoxon test was used between two groups. p<0.05 or p<0.01 was statistically significant.
40 male SD rats were randomly divided into five groups including a normal group, a model group, a positive medicine group (sodium dimercaptosuccinate group), a high-dose magaldrate group and a low-dose magaldrate group according to their body weights, and each group included 8 rats. Except the rats in the normal group were given ultrapure water, the rats in the model group, the positive medicine group, and the magaldrate groups of each dose drank 0.5% lead acetate ultrapure water solution for 30 days, resulting in chronic lead-exposed models. After the model was successfully established, the lead was stopped and the rates were fed with distilled water from the 31st day. The rats in the normal group were given an equal volume of 0.5% CMC-Na solution by intragastric administration, while the rats in the high-dose magaldrate group and the low-dose magaldrate group were given a high dose of 0.6 g/kg and a low dose of 0.3 g/kg respectively by intragastric administration. The rats in the positive medicine group were given a dose of 10 mg/kg of sodium dimercaptosuccinate by intragastric administration, and all the intragastric subjects were given in equal volume twice a day for 30 days. On the 60th day, blood samples were collected. Brain, liver and femur samples were collected and stored in liquid nitrogen for later use. After wet digestion, the blood samples and tissues of each group were tested for content of lead by inductively coupled plasma mass spectrometry (ICP-MS), and the lead-removing rates were counted. […]

[1] = 60th day, positive medicine 0.01 g/kg intragastric twice a day for 30 days, mean ± SD

## O=C([O-])C(S)C(S)C(=O)[O-].[Na+].[Na+] (stereo not shown) [Sodium dimercaptosuccinate, sodium dimercaptosuccinate]
[1]
  Content of lead in blood: 0.058 ± 0.01 µg/g and 0.069 ± 0.01 µg/g and 0.059 ± 0.01 µg/g and 0.073 ± 0.01 µg/g
  Content of lead in brain: 0.129 ± 0.03 µg/g and 0.218 ± 0.04 µg/g and 0.178 ± 0.04 µg/g and 0.165 ± 0.05 µg/g
  Femur content of lead: 32.085 ± 4.73 µg/g and 35.006 ± 3.92 µg/g and 28.075 ± 3.25 µg/g and 33.478 ± 4.86 µg/g
Positive medicine group 10 mg/kg, versus model group
  Removing rate, lead in bones: 0.00%
